{"source": "patent US12139488B2", "about": "“Pyrido[3,2-d]pyrimidine compounds uses thereof for treating a proliferative disease” (Universite de Montreal, priority 2021, dated 2024)", "key": {"[1]": {"biological_target": "ARAF (Homo sapiens (Human), UniProt P10398)", "sequence (P10398 whole entry)": "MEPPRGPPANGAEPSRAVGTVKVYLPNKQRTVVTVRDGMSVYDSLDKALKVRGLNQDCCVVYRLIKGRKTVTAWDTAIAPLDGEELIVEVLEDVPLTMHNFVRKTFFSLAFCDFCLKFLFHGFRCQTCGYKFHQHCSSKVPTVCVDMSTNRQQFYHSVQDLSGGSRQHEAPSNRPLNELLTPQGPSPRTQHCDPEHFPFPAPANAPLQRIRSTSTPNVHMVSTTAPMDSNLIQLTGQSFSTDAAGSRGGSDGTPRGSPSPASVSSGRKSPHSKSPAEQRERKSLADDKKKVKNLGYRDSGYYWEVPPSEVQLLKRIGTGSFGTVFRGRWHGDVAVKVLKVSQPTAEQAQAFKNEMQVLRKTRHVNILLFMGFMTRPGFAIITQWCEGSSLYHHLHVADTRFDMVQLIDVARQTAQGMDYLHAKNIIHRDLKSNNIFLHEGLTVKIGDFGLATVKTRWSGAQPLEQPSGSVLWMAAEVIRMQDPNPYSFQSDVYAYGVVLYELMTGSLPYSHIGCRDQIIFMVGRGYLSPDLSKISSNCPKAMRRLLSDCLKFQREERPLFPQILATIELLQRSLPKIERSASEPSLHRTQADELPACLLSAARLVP", "assay": "ARAF kinase activity assay (AlphaLISA p-MEK 1/2 detection)", "format": "biochemical", "method": "Compound preparation: solid samples of each substances in 1 dram vials were suspended in DMSO (Fisher Scientific) at a stock concentration of 20 mM. Stocks were kept at −20° C. and protected from light. If solubility of the compound at 20 mM appeared to be an issue, the initial concentration of the DMSO stock was changed to 10 mM or 5 mM.\nIn vitro enzymatic reactions were used for evaluating compounds intrinsic activity against BRAF, CRAF and ARAF. For BRAF and CRAF, 0.375 nM of purified GST-tagged kinases (cat #B4062-10 UG and cat #R1656-10 UG respectively from Millipore Sigma) were incubated with 75 nM of kinase-dead MEK1 substrate (cat #40075; BPS Bioscience) in the presence of 10 μM of Ultrapure ATP (cat #V9102; Promega; part V915A) with and without the test compound in a buffer containing 50 mM HEPES pH 7.5, 10 mM MgCl2, 1 mM EDTA, 0.01% Brij-35 and 2 mM DTT. Separate reactions were performed with the MEK1 substrate and ATP as a blank control. ARAF, kinase reactions were rigorously the same with the exception that kinase concentration was raised to 3.75 nM (cat #1768-0000-1; Reaction Biology).\nFor compound treatment, 5 μL/well of test substance solution are placed in a 384-well proxyplate (Perkin Elmer) and mixed with 2× concentrated kinase reactions. The dilution series is selected so that nine concentrations cover a range from 100 nM to 0.01 nM. […] The final concentration of DMSO in the assay is set at 0.05%.\nARAF kinase reactions were carried out for a total of 2 hours at 30° C. and then stopped by addition of EDTA at a final concentration of 40 mM. Reactions were then detected using the AlphaLISA® SureFire® Ultra™ p-MEK 1/2 (Ser218/222) (PerkinElmer) kit. Reactions were performed with 5 μL of kinase reaction according to the manufacturer's specifications in 384-well proxyplates (Perkin Elmer) followed by overnight incubation of the AlphaLISA® reactions at room temperature in a humidified chamber. After completion of the detection reactions, the signals were recorded on a Synergy Neo2 plate reader (Biotek) equipped with AlphaLISA® filters. The effect of each compound dilution on the pMEK signal generated by ARAF reactions was expressed in % inhibition and calculated as follows. An internal 100% inhibition control (average of luminescence in kinase reactions comprising kinase dead MEK1 substrate alone) was included in each plate to measure of pMEK background and was subtracted from each data point. The average of DMSO (vehicle) controls (set as 0% inhibition) was also established and used to calculate % inhibition: % inhibition=100*(1−((pMEK signalcompound)/(pMEK signalDMSO)))\nIC50 values were obtained by plotting the kinase inhibition values and fitting the dose-activity curves using a log(agonist) versus response-variable slope (four parameters) function using either GraphPadPrism (V7.0) or Dotmatics Screening Ultra platform. Standards included in the ARAF kinase assay were Belvarafenib (MedChem Express cat #HY-109080; CAS #1446113-23-0), LXH254 (MedChem Express cat #HY-112089; CAS #1800398-38-2) and BGB283 (cat #HY-18957; CAS #1446090-79-4)."}, "[2]": {"tested_on": "NCI-H358 cells (KRAS-G12C)", "assay": "Proliferation inhibition (CellTiter-Glo), NCI-H358", "format": "cell-based, human", "conditions": "NCI-H358, 3 days, read-out: NCI-H358 Prolif. EC50", "method": "(§1) All cancer cell lines (A375, A101D, A2058, RKO, HT29 SK-MEL 30, IPC298, HepG2, HCT-116, Lovo, SWV620, SW480, NCI-H358, NCI-H2122, Calu-6, NCIH2087, NCIH1755, NCIH1666 and Mewo) were obtained from ATCC and cultured in RPMI-1640 medium (Gibco) supplemented with 5% heat inactivated fetal bovine serum (FBS, Wisent) at 37° C. under 5% CO2. Cells were maintained in T175 flasks (Greiner). They were passaged by removing the culture medium, washing once in 10 mL of room temperature Phosphate Buffered Saline (PBS; Wisent) and incubating at 37° C. with 2 mL of 0.05% Trypsin (Thermo-Fisher). Trypsin was then inactivated by adding complete growth medium and the cells were then replated in a T175 culture dish at the appropriate dilution. All cell lines were routinely tested for mycoplasma contamination. Tissue type and mutational status of each cell line can be found in Table B.\n(§2) CellTiter-Glo® viability analysis was conducted on cells plated in 100 μL of complete RPMI-1640 growth medium in 96-well flat-bottomed white opaque plates (Greiner or Croning) at a density indicated in Table E (for each CCL, number of cells plated per well of a 96-well plate to perform the CellTiter-Glo® cell viability assay). The cell density in cells/cm^2 would correspond to cell number divided by the area of one well of a 96-well plate (0.32 cm^2). […]\n(§3) After 3 days of incubation, the growth media were removed by aspiration and 60 μL of diluted CellTiter-Glo® reagent (10 μL CellTiter-Glo® reagent+50 μL of PBS) was added to each well. […] Luminescence signals were then acquired on a Synergy Neo2 plate reader (Biotek).\n(§4) The effect of each compound dilution on the proliferation of cancer cell lines was expressed in % inhibition and calculated as follows. […]\n(§5) The ability of each compound to inhibit proliferation was expressed as a EC50 value obtained by plotting the effect values for each data point of a dilution series and fitting the obtained curves using a log(agonist) versus response-variable slope (four parameters) function using GraphPadPrism (V7.0) or Dotmatics Screening Ultra platform."}, "[3]": {"tested_on": "NCI-H2122 cells (KRAS-G12C)", "assay": "Proliferation inhibition (CellTiter-Glo), NCI-H2122", "format": "cell-based, human", "conditions": "NCI-H2122, 3 days, read-out: NCI-H2122 Prolif. EC50", "method": "as §1, §2, §3, §4, §5"}}, "note": "Read-outs that look alike come from different tables or passages of the source."}
{"compound": "Cc1ccc2c(Nc3cccc(Cl)c3F)nccc2c1NC(=O)c1csc2c(N)ncnc12", "note": "[Belvarafenib, reference compound]", "values": [{"measurement": "IC50", "setting": "[1]", "result": "> 10", "unit": "nM"}, {"measurement": "EC50", "setting": "[2]; Homo sapiens, 72 h", "result": "0.3 to 3", "unit": "µM"}, {"measurement": "EC50", "setting": "[3]; Homo sapiens, 72 h", "result": "0.3 to 3", "unit": "µM"}]}
{"compound": "Nc1cccc2c1ncn2-c1ccc2ncnc(Nc3c(F)ccc(NS(=O)(=O)c4cccc(Cl)c4Cl)c3F)c2n1", "note": "[Example 99]", "values": [{"measurement": "IC50", "setting": "[1]", "result": "< 1", "unit": "nM"}, {"measurement": "EC50", "setting": "[2]", "result": "< 0.03", "unit": "µM"}, {"measurement": "EC50", "setting": "[3]", "result": "0.3 to 3", "unit": "µM"}]}
{"compound": "CC1(O)CCN(c2cccc3c2ncn3-c2ccc3ncnc(Nc4c(F)ccc(NS(=O)(=O)c5cccc(Cl)c5Cl)c4F)c3n2)CC1", "note": "[Example 524]", "values": [{"measurement": "IC50", "setting": "[1]", "result": "1 to 10", "unit": "nM"}, {"measurement": "EC50", "setting": "[2]", "result": "< 0.03", "unit": "µM"}, {"measurement": "EC50", "setting": "[3]", "result": "0.3 to 3", "unit": "µM"}]}
